Source: patent US20240277890A1, “ANTIMICROBIAL ARTICLES COMPRISING POLYURETHANE” (Amicoat AS, priority 2021, published 2024)
≈ marks a conversion by molar mass, not a printed value.

Legend:
[1] = system: Salmonella sp - multi-drug resistant clinical isolate; assay: MIC microbroth dilution (CLSI); format: cell-based
[2] = system: Propionibacterium acnes- antibiotic-susceptible clinical isolate; assay: MIC microbroth dilution (CLSI); format: cell-based; details: P. acnes antibiotic-susceptible
Description: Supplemented Brucella broth (SBB) was used for the anaerobic strains with an inoculum of approximately 10^6 CFU/mL. SBB is a broth consisting of 1% peptone, 0.5% ‘Lab-lemco’, 1% glucose and 0.5% sodium chloride supplemented with 5 μg/L haemin and 1 μg/L vitamin K (both obtained from Sigma Aldrich Ltd.) Yeast and filamentous fungal MIC were performed in MOPS buffered RPMI 1640 medium (MOPS buffer obtained from Sigma Aldrich Ltd., RPMI 1640 obtained from Invitrogen Ltd, Paisley, Scotland). The yeast inocula were in the range 7.5×10^2-4×10^3 CFU/mL and the filamentous fungi approximately 8×10^3-1×10^5 CFU/mL.
MICs were determined as described in Example 2.

[3] = system: Candida albicans ATCC90028 - reference strain
[4] = system: Candida albicans ATCC24433 - reference strain
[5] = system: Candida tropicalis ATCC750 - reference strain
[6] = system: Trichophyton mentagrophytes - G.R. Micro collection
[7] = system: Trichophyton interdigitale - G.R. Micro collection
[8] = system: Cryptococcus neoformans - G.R. Micro collection
[9] = system: Escherichia coli ATCC25922 - antibiotic-susceptible type strain; details: ATCC25922
[10] = system: Escherichia coli ATCC32518 - β-lactamase positive type strain
[11] = system: Enterobacter sp - antibiotic-susceptible clinical isolate
[12] = system: Pseudomonas aeruginosa ATCC27853 - antibiotic-susceptible type strain; details: ATCC27853
[13] = system: Pseudomonas aeruginosa - multi-drug resistant clinical isolate
[14] = system: Haemophilus influenzae - β-lactamase positive clinical isolate
[15] = system: Haemophilus influenzae β-lactamase negative ampicillin-resistant clinical isolate
[16] = system: Staphylococcus aureus ATCC 29213 - antibiotic-susceptible control strain; details: ATCC 29213
[17] = system: Staphylococcus aureus ATCC 43300 - methicillin-resistant control strain
[18] = system: Staphylococcus aureus - methicillin-resistant clinical isolate
[19] = system: Staphylococcus epidermidis methicillin-resistant clinical isolate
[20] = system: Staphylococcus haemolyticus - antibiotic susceptible clinical isolate
[21] = system: Enterococcus faecalis - ATCC 29212 antibiotic-susceptible control strain; details: ATCC 29212
[22] = system: Enterococcus faecalis vancomycin-susceptible clinical isolate
[23] = system: Enterococcus faecalis vancomycin-resistant (VanA) clinical isolate
[24] = system: Enterococcus faecalis vancomycin-resistant (VanB) clinical isolate
[25] = system: Enterococcus faecalis high-level gentamicin-resistant clinical isolate
[26] = system: Enterococcus faecium vancomycin-resistant (VanB) clinical isolate
[27] = system: Streptococcus pyogenes - Macrolide (M-type) resistance clinical isolate
[28] = system: Corynebacterium jeikeium - multi-drug resistant clinical isolate
[29] = system: MU50 Staphylococcus aureus (MRSA) - VISA type strain
[30] = system: EMRSA1 Staphylococcus aureus (MRSA) - SSCmec type 3; details: EMRSA1 - SSCmec type 3
[31] = system: HT2001254 Staphylococcus aureus (MRSA) - PVL positive; details: HT2001254 S. aureus (MRSA) PVL positive
[32] = system: Streptococcus agalactiae - antibiotic-susceptible clinical isolate
[33] = system: Streptococcus agalactiae - macrolide-resistant clinical isolate
[34] = system: Group G Streptococcus - antibiotic-susceptible clinical isolate
[35] = system: Streptococcus bovis - macrolide-resistant clinical isolate
[36] = system: Methicillin resistant Staphylococcus epidermidis (MRSE) strain ATCC 27626; details: ATCC 27626

`CCCCCCNC(=O)[C@H](CCCNC(=N)N)NC(=O)[C@H](Cc1c(C(C)(C)C)[nH]c2c(C(C)(C)C)cc(C(C)(C)C)cc12)NC(=O)[C@@H](N)CCCNC(=N)N` [Compound 8] showed an MIC [1] of 8 µg/mL (≈ 10.4 µM), an MIC [2] of 4 µg/mL (≈ 5.21 µM) and an MIC [3] of 4 µg/mL (≈ 5.21 µM). It also gave an MIC [4] of 8 µg/mL (≈ 10.4 µM), an MIC [5] of 4 µg/mL (≈ 5.21 µM) and an MIC [6] of 4 µg/mL (≈ 5.21 µM). For the same molecule, the MIC [7] was 4 µg/mL (≈ 5.21 µM), the MIC [8] was 2 µg/mL (≈ 2.6 µM) and the MIC [9] was 4 µg/mL (≈ 5.21 µM). For the same molecule, the MIC [10] was 8 µg/mL (≈ 10.4 µM), the MIC [11] was 8 µg/mL (≈ 10.4 µM) and the MIC [12] was 8 µg/mL (≈ 10.4 µM). It also gave an MIC [13] of 4 µg/mL (≈ 5.21 µM), an MIC [14] of 4 µg/mL (≈ 5.21 µM) and an MIC [15] of 8 µg/mL (≈ 10.4 µM). It also gave an MIC [16] of 4 µg/mL (≈ 5.21 µM), an MIC [17] of 4 µg/mL (≈ 5.21 µM) and an MIC [18] of 4 µg/mL (≈ 5.21 µM). For the same molecule, the MIC [19] was 2 µg/mL (≈ 2.6 µM), the MIC [20] was 4 µg/mL (≈ 5.21 µM) and the MIC [21] was 4 µg/mL (≈ 5.21 µM). For the same molecule, the MIC [22] was 4 µg/mL (≈ 5.21 µM), the MIC [23] was 4 µg/mL (≈ 5.21 µM) and the MIC [24] was 8 µg/mL (≈ 10.4 µM). The MIC [25] was 8 µg/mL (≈ 10.4 µM), the MIC [26] was 4 µg/mL (≈ 5.21 µM) and the MIC [27] was 8 µg/mL (≈ 10.4 µM). It also gave an MIC [28] of 2 µg/mL (≈ 2.6 µM), an MIC [29] of 4 µg/mL (≈ 5.21 µM) and an MIC [30] of 4 µg/mL (≈ 5.21 µM). For the same molecule, the MIC [31] was 4 µg/mL (≈ 5.21 µM), the MIC [32] was 8 µg/mL (≈ 10.4 µM) and the MIC [33] was 8 µg/mL (≈ 10.4 µM). The MIC [34] was 8 µg/mL (≈ 10.4 µM), the MIC [35] was 2 µg/mL (≈ 2.6 µM) and the “MRSE (MIC)” value [36] was less than 1 µg/mL. The “S. pyogenes (MIC)” value (S. pyogenes) was 2 µg/mL.
